Laboratory results from US20050228180A1, “Alpha, omega-dicarboximide derivatives as useful uro-selective a1a adrenoceptor blockers” (priority 2002, published 2005).
Where a name gives a salt, the structure may show the parent alone.

Columns and labels:
α1A adrenoceptor = target: T1, α1A adrenoceptor (Rattus norvegicus, UniProt P43140); assay: Radioligand binding, [3H] prazosin displacement, rat submaxillary membranes; settings: for Ki: [3H] prazosin displacement, rat submaxillary membranes, read-out: Affinity (Ki) α1A (Rat Submaxillary); for α1B/α1A: ratio of binding affinities, rat liver / rat submaxillary
T1 construct: from tissue; host or cells: rat submaxillary gland membranes
T1 sequence (P43140 1-466): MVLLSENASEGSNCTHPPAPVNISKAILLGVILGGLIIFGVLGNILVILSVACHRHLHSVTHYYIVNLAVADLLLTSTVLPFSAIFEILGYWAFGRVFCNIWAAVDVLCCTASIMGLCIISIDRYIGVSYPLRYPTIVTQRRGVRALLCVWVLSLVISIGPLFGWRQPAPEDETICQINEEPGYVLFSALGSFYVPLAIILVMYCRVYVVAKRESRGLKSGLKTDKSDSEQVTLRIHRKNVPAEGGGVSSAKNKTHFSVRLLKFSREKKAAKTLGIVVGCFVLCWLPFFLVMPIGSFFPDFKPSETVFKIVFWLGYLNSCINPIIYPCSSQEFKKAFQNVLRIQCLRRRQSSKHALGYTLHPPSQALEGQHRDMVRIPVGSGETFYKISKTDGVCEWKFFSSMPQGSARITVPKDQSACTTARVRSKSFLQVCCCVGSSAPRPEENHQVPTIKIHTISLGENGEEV
Procedure: (§1) Receptor binding assays were performed using native a-adrenoceptors. The affinity of different compounds for α1A and α1B adrenoceptor subtypes was evaluated by studying their ability to displace specific [^3H] prazosin binding from the membranes of rat submaxillary and liver respectively (Michel et al., Br J Pharmacol, 1989: 98:883). The binding assays were performed according to U+Prichard et al. (Eur J Pharmacol, 1978; 50:87 with minor modifications.
(§2) Submaxillary glands were isolated immediately after sacrifice. The liver was perfused with buffer (Tris HCl 50 mM, NaCl 100 mM, 10 mM EDTA pH 7.4). The tissues were homogenised in 10 volumes of buffer (Tris HCl 50 mM, NaCl 100 mM, 10 mM EDTA pH 7.4). The homogenate was filtered through two layers of wet gauge and filtrate was centrifuged at 500 g for 10 min. The supernatant was subsequently centrifuged at 40,000 g for 45 min. The pellet thus obtained was resuspended in the same volume of assay buffer (Tris HCl 50 mM, 5 mM EDTA pH 7.4) and was stored at −70° C. until the time of assay.
(§3) The membrane homogenates (150-250 μg protein) were incubated in 250 μl of assay buffer (Tris HCl 50 mM, EDTA 5 mM, pH 7.4) at 24-25° C. for 1 hour. Non specific binding was determined in the presence of 300 nM prazosin. The incubation was terminated by vacuum filtration over GF/B fibre filters. The filters were then washed with ice cold 50 mM Tris HCl buffer (pH 7.4). The filtermats were dried and bound radioactivity retained on filters was counted. The IC50 and Kd were estimated by using the non-linear curve-fitting program using G Pad Prism software. The value of inhibition constant Ki was calculated from competitive binding studies by using Cheng & Prusoff equation (Cheng & Prusoff, Biochem Pharmacol, 1973, 22: 3099-3108), Ki=IC50/(1+L/Kd) where L is the concentration of [^3H] prazosin used in the particular experiment (Table 1).

α1B adrenoceptor = target: T2, α1B adrenoceptor (Rattus norvegicus, UniProt P15823); assay: Radioligand binding, [3H] prazosin displacement, rat liver membranes; settings: read-out: Affinity (Ki) α1B (Rat Liver)
T2 construct: from tissue; host or cells: rat liver membranes
T2 sequence (P15823 1-515): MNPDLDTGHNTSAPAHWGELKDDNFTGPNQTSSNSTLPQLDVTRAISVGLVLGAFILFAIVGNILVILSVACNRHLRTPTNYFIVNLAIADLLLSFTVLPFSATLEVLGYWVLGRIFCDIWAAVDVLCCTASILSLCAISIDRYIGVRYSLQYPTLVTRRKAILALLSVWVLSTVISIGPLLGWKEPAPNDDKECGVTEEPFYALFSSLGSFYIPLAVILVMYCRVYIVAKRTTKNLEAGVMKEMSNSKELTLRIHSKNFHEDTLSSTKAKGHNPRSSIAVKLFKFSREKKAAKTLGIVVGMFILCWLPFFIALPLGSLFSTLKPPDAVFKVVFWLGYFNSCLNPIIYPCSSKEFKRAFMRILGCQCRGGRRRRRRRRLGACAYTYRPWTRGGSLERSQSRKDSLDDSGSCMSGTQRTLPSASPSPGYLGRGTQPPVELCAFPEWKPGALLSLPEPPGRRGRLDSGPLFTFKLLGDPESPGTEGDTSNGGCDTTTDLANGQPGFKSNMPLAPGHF
Procedure: as §1, §2, §3

SMILES | Ki (α1A adrenoceptor) [µM] | α1B/α1A (α1A adrenoceptor) | Ki (α1B adrenoceptor) [µM] | α1B/α1A (α1A adrenoceptor; hydrochloride)
CCOC(=O)CN(CCCN1C(=O)C2CC=CCC2C1=O)CCNc1ccccc1OC(C)C (stereo not drawn) [Compound No. 52, 2-[N-{N′-(2-Isopropoxyphenyl)aminoethyl}ethylacetate-aminopropyl]-3a,4,7,7a-tetrahydro-1H-isoindole-1,3(2H)-dione] | 0.351 | >43 | > 15 | –
CC(=O)Nc1ccc(N2CCN(CCCN3C(=O)C4CC=CCC4C3=O)CC2)c(OC(C)C)c1.Cl (stereo not drawn) [Compound No. 58, 2-[3-{4-(2-Isopropoxy-4-acetylaminophenyl)piperazin-1-yl}propyl]-3a,4,7,7a-tetrahydro-1H-isoindole-1,3(2H)-dione hydrochloride] | 0.16 | 10 | > 1 | –
CC(C)Oc1ccccc1N1CCN(CCCN2C(=O)C3=CC=CCC3C2=O)CC1.Cl (stereo not drawn) [Compound No. 59, 2-[3-{4-(2-Isopropoxyphenyl)piperazin-1-yl}propyl]-7,7a-dihydro-1H-isoindole-1,3(2H)-dione hydrochloride] | 0.0023 | 21 | 0.048 | –
CC(C)Oc1ccccc1N1CCN(CCC(=O)N2C(=O)C3CC=CCC3C2=O)CC1.Cl (stereo not drawn) [Compound No. 62, 2-[3-{4-(2-Isopropoxyphenyl)piperazin-1-yl}-1-oxo-propyl]-3a,4,7,7a-tetrahydro-1H-isoindole-1,3(2H)-dione hydrochloride] | > 1 | 1 | > 1 | –
CC(C)Oc1ccccc1N1CCN(CCC(=O)N2C(=O)C3CCCCC3C2=O)CC1.Cl (stereo not drawn) [Compound No. 63, 2-[3-{4-(2-Isopropoxyphenyl)piperazin-1-yl}-1-oxo-propyl]-3a,4,5,6,7,7a-hexahydro-1H-isoindole-1,3(2H)-dione hydrochloride] | > 0.1 | >10 | > 1 | –
CC(C)Oc1ccccc1[N+]1([O-])CCN(CCCN2C(=O)C3CC=CCC3C2=O)CC1 (stereo not drawn) [Compound No. 64, 2-[3-{4-(2-Isopropoxyphenyl)piperazin-1-yl,4-N-oxide}propyl]-3a,4,7,7a-tetrahydro-1H-isoindole-1,3(2H)-dione] | 0.0285 | 31 | 0.87 | –
CC(C)Oc1ccccc1N1CC[N+]([O-])(CC(O)CN2C(=O)C3CC=CCC3C2=O)CC1 (stereo not drawn) [Compound No. 65, 2-[3-{4-(2-Isopropoxyphenyl)piperazin-1-yl,1-N-oxide}2-hydroxypropyl]-3a,4,7,7a-tetrahydro-1H-isoindole-1,3(2H)-dione] | > 1 | 1 | > 1 | –
CC(C)Oc1ccccc1N1CCN(CCCN2C(=O)C3CC=CCC3C2=O)C1=O (stereo not drawn) [Compound No. 67, 2-[3-{3-(2-Isopropoxyphenyl)imidazolidon-1-yl}propyl]-3a,4,7,7a-tetrahydro-1H-isoindole-1,3(2H)-dione] | 0.189 | >53 | > 10 | –
CC(C)Oc1ccccc1N1CCN(CCCN2C(=O)C3CC=CCC3C2=O)C(=O)C1=O (stereo not drawn) [Compound No. 71, 2-[3-{4-(2-Isopropoxyphenyl)-2,3-dioxopiperazin-1-yl}-propyl]-3a,4,7,7a-tetrahydro-1H-isoindole-1,3(2H)-dione] | > 1 | 1 | > 10 | –
CC(C)Oc1ccccc1N1CCN(CCCN2C(=O)C3C(O)C=CC(O)C3C2=O)CC1 (stereo not drawn) [Compound No. 72, 2-[3-{4-(2-Isopropoxyphenyl)piperazin-1-yl}propyl]-4,7-dihydroxy-3a,4,7,7a-tetrahydro-1H-isoindole-1,3(2H)-dione] | 0.00054 | 263 | 0.142 | –

The next lines start with the values.

Ki (α1A adrenoceptor) [µM] | α1B/α1A (α1A adrenoceptor) | Ki (α1B adrenoceptor) [µM] | α1B/α1A (α1A adrenoceptor; hydrochloride) | SMILES
0.074 | >203 | > 15 | – | CC(C)Oc1ccccc1NCCN(C=O)CCCN1C(=O)C2CC=CCC2C1=O (stereo not drawn) [Compound No. 53, 2-[N-{N′-(2-Isopropoxyphenyl)aminoethyl}formylaminopropyl]-3a,4,7,7a-tetrahydro-1H-isoindole-1,3(2H)-dione]
7.29 | >2 | > 15 | – | CC(C)Oc1ccccc1N1CCN(CCCN2C(=O)C3CC=CCC3C2=O)CC1=O (stereo not drawn) [Compound No. 54]
0.072 | 51 | 3.64 | – | COc1ccccc1[N+]1([O-])CCN(CCCN2C(=O)CCCC2=O)CC1 [Compound No. 55, 1-[4-(2-Methoxyphenyl)piperazin-1-yl-4-N-oxide]-3-(2,6-dioxopiperidin-1-yl]propane]
> 0.1 | >10 | 0.992 | – | COc1ccccc1NCCNCCCN1C(=O)CCCC1=O [Compound No. 56, 1-[N-{N′-(2-Methoxyphenyl)aminoethyl}]-3-(2,6-dioxopiperidin-1-yl)aminopropane hydrochloride]
> 1 | 1 | > 1 | – | COc1ccccc1NCCNCCCN1C(=O)CCCC1=O.Cl [Compound No. 57, 1-[N—N-{N′-(2-Methoxyphenyl)aminoethyl}]-3-(2,6-dioxopiperidin-1-yl)aminopropane hydrochloride]
0.00093 | 31 | 0.029 | – | CC(C)Oc1ccccc1N1CCN(CCCN2C(=O)[C@@H]3[C@H](C2=O)[C@H]2C=C[C@@H]3O2)CC1 [Compound No. 61, 2-[3-{4-(2-Isopropoxyphenyl)piperazin-1-yl}-propyl]-exo-4,7-epoxy-3a,4,7,7a-tetrahydro-1H-isoindole-1,3(2H)-dione hydrochloride]
0.0052 | – | 0.167 | 32 | CCOc1ccccc1N1CCN(CCCN2C(=O)C3CC(O)C(O)CC3C2=O)CC1 (stereo not drawn) [Compound No. 66, hydrochloride]
0.229 | >44 | > 10 | – | CC(C)Oc1ccccc1N(CCO)CCNCCCN1C(=O)C2CC=CCC2C1=O (stereo not drawn) [Compound No. 68, 2-[N-{N′-(2-Isopropoxyphenyl)aminoethyl}aminopropyl-N′-(β-hydroxyethyl]-3a,4,7,7a-tetrahydro-1H-isoindole-1,3(2H)-dione hydrochloride]
7.16 | >10 | > 10 | – | COc1ccccc1N1CC[N+]([O-])(CC(O)CN2C(=O)CCCC2=O)CC1 (stereo not drawn) [Compound No. 69, 1-[4-(2-Methoxyphenyl)piperazin-1-yl-1-N-oxide]-3-(2,6-dioxopiperidin-1-yl]-2-hydroxypropane]
6.75 | 0.7 | 4.92 | – | O=C1CCCC(=O)N1CCC[N+]1([O-])CCN(c2ccccc2O)CC1 [Compound No. 70, 1-[4-(2-Hydroxyphenyl)piperazin-1-yl-1-N-oxide]-3-(2,6-dioxopiperidin-1-yl]propane]
0.202 | >74 | > 15 | – | CCN(CCCN1C(=O)C2CC=CCC2C1=O)CCNc1ccccc1OC(C)C (stereo not drawn) [Compound No. 74, 2-[N-{N′-(2-Isopropoxyphenyl)aminoethyl}ethylaminopropyl]-3a,4,7,7a-tetrahydro-1H-isoindole-1,3(2H)-dione]
